Measured values taken from US9723837B2, “Imidazole derivatives useful for controlling microbial growth” (North Carolina State University, priority 2012, dated 2017).
Converted amounts (≈) assume the structure as drawn.

What was measured:
A. baumannii = assay: Broth microdilution MIC, A. baumannii; format: cell-based; conditions: Mueller-Hinton medium, 37° C., 16 hours
Protocol: (§1) Each member of the pilot library was tested for antibiotic activity. Activity was quantified by measuring the MIC of each derivative against a variety of representative pathogenic bacterial strains using the microdilution protocol (CSLI, Performance Standards for Antimicrobial Susceptibility Testing; Nineteenth Informational Supplement, Clinical and Laboratory Standards Institute, Wayne, Pa., 2009). A. baumannii, E. coli, MSSA, and MRSA were used for initial evaluation. […] Compounds 4d, 4n, and 4o were determined to be the lead compounds.
(§2) Broth Microdilution Method for MIC Determination.
(§3) Overnight cultures of bacterial strain were subcultured to 5×10^5 CFU/mL in Mueller-Hinton medium (Fluka #70192). The resulting bacterial suspension was aliquoted (1.0 mL) into culture tubes. Samples were prepared from these culture tubes containing either 256 μg/mL of specified antibiotic or no test compound as a control. Samples were then aliquoted (200 μL) into the first row of wells of a 96-well microtiter plate in which subsequent wells were prefilled with 100 μL of Mueller-Hinton medium based 5×10^5 CFU/mL bacterial subculture. Using the multichannel pipettor set at 100 μL, row one wells were mixed 8-10 times. Then, 100 μL were withdrawn and transferred to row two. Row two wells were mixed 8-10 times followed by a 100 μL transfer from row two to row three. This procedure was used to serial dilute the rest of the rows of the microtier plate. The microtiter plate sample was then covered with a microtiter plate lid and then placed in a covered plastic container. The chamber was incubated under stationary conditions at 37° C.

E. coli = assay: Broth microdilution MIC, E. coli; format: cell-based; conditions: Mueller-Hinton medium, 37° C., 16 hours
Protocol: as §1, §2, §3

MSSA = assay: Broth microdilution MIC, MSSA; format: cell-based, Staphylococcus aureus; conditions: Mueller-Hinton medium, 37° C., 16 hours
Protocol: as §1, §2, §3

MRSA ATCC BAA 44 = assay: Broth microdilution MIC, MRSA ATCC BAA 44; format: cell-based, Staphylococcus aureus; conditions: for MIC MRSA: Table 2 pilot library screen; for MIC MRSA BAA 44: Table 3 nine-strain screen
Protocol: as §1
(§4) Once it was noted that compounds were active against MSSA and MRSA, the library was tested against various MRSA strains isolated from a nosocomial environment. MRSA has emerged as a major cause of illness and death in hospitals. These illnesses include lower respiratory tract infections, surgical site infections, cardiovascular infections and pneumonia. Nine different MRSA strains were obtained, and lead compounds 4d and 4o were screened for activity.
as §2, §3

MRSA ATCC BAA 1770 = assay: Broth microdilution MIC, MRSA ATCC BAA 1770; format: cell-based, Staphylococcus aureus
Protocol: as §4, §2
as §3, with “The microtiter plate sample was then covered with a microtiter plate lid and then placed in a covered plastic container. The chamber was incubated under stationary conditions at 37° C.” left out

MRSA ATCC BAA 1556 = assay: Broth microdilution MIC, MRSA ATCC BAA 1556; format: cell-based, Staphylococcus aureus
Protocol: as §4, §2
as §3, with “The microtiter plate sample was then covered with a microtiter plate lid and then placed in a covered plastic container. The chamber was incubated under stationary conditions at 37° C.” left out

MRSA ATCC BAA 811 = assay: Broth microdilution MIC, MRSA ATCC BAA 811; format: cell-based, Staphylococcus aureus
Protocol: as §4, §2
as §3, with “The microtiter plate sample was then covered with a microtiter plate lid and then placed in a covered plastic container. The chamber was incubated under stationary conditions at 37° C.” left out

MRSA ATCC BAA 1685 = assay: Broth microdilution MIC, MRSA ATCC BAA 1685; format: cell-based, Staphylococcus aureus
Protocol: as §4, §2
as §3, with “The microtiter plate sample was then covered with a microtiter plate lid and then placed in a covered plastic container. The chamber was incubated under stationary conditions at 37° C.” left out

MRSA ATCC BAA 1753 = assay: Broth microdilution MIC, MRSA ATCC BAA 1753; format: cell-based, Staphylococcus aureus
Protocol: as §4, §2
as §3, with “The microtiter plate sample was then covered with a microtiter plate lid and then placed in a covered plastic container. The chamber was incubated under stationary conditions at 37° C.” left out

MRSA ATCC 33591 = assay: Broth microdilution MIC, MRSA ATCC 33591; format: cell-based, Staphylococcus aureus
Protocol: as §4, §2
as §3, with “The microtiter plate sample was then covered with a microtiter plate lid and then placed in a covered plastic container. The chamber was incubated under stationary conditions at 37° C.” left out

MRSA ATCC 700789 = assay: Broth microdilution MIC, MRSA ATCC 700789; format: cell-based, Staphylococcus aureus
Protocol: as §4, §2
as §3, with “The microtiter plate sample was then covered with a microtiter plate lid and then placed in a covered plastic container. The chamber was incubated under stationary conditions at 37° C.” left out

MRSA ATCC 43300 = assay: Broth microdilution MIC, MRSA ATCC 43300; format: cell-based, Staphylococcus aureus
Protocol: as §4, §2
as §3, with “The microtiter plate sample was then covered with a microtiter plate lid and then placed in a covered plastic container. The chamber was incubated under stationary conditions at 37° C.” left out

Structure (SMILES)	MIC A. baumannii (A. baumannii)	MIC E. coli (E. coli)	MIC MSSA (MSSA)	MIC MRSA (MRSA ATCC BAA 44)	MIC MRSA BAA 44 (MRSA ATCC BAA 44)	MIC MRSA BAA 1770 (MRSA ATCC BAA 1770)	MIC MRSA BAA 1556 (MRSA ATCC BAA 1556)	MIC MRSA BAA 811 (MRSA ATCC BAA 811)	MIC MRSA BAA 1685 (MRSA ATCC BAA 1685)	MIC MRSA BAA 1753 (MRSA ATCC BAA 1753)	MIC MRSA 33591 (MRSA ATCC 33591)	MIC MRSA 700789 (MRSA ATCC 700789)	MIC MRSA 43300 (MRSA ATCC 43300)
Cc1nc(N)n(-c2ccccc2)c1-c1ccccc1 [Compound 4a]	128 µg/mL (≈ 513 µM)	256 µg/mL (≈ 1030 µM)	256 µg/mL (≈ 1030 µM)	256 µg/mL (≈ 1030 µM)									
CCCCCCc1nc(N)n(-c2ccccc2)c1-c1ccccc1 [Compound 4b]	>256 µg/mL	>256 µg/mL	16 µg/mL (≈ 50.1 µM)	8 µg/mL (≈ 25 µM)									
Nc1nc(-c2ccccc2)c(-c2ccccc2)n1-c1ccccc1 [Compound 4c]	>256 µg/mL	>256 µg/mL	>256 µg/mL	>256 µg/mL									
CCCCCCCc1ccc(-n2c(N)nc(C)c2-c2ccccc2)cc1 [Compound 4d]	64 µg/mL (≈ 184 µM)	>256 µg/mL	4 µg/mL (≈ 11.5 µM)	2 µg/mL (≈ 5.76 µM)	2 µg/mL (≈ 5.76 µM)	8 µg/mL (≈ 23 µM)	4 µg/mL (≈ 11.5 µM)	2 µg/mL (≈ 5.76 µM)	4 µg/mL (≈ 11.5 µM)	4 µg/mL (≈ 11.5 µM)	8 µg/mL (≈ 23 µM)	4 µg/mL (≈ 11.5 µM)	2 µg/mL (≈ 5.76 µM)
CCCCCCCc1ccc(-n2c(N)nc(CCCCCC)c2-c2ccccc2)cc1 [Compound 4e]	>256 µg/mL	>256 µg/mL	>256 µg/mL	128 µg/mL (≈ 306 µM)									
CCCCCCCc1ccc(-n2c(N)nc(-c3ccccc3)c2-c2ccccc2)cc1 [Compound 4f]	>256 µg/mL	>256 µg/mL	>256 µg/mL	>256 µg/mL									
CCCCCCCCCCc1ccc(-n2c(N)nc(C)c2-c2ccccc2)cc1 [Compound 4g]	>256 µg/mL	>256 µg/mL	32 µg/mL (≈ 82.1 µM)	4 µg/mL (≈ 10.3 µM)									
CCCCCCCCCCc1ccc(-n2c(N)nc(CCCCCC)c2-c2ccccc2)cc1 [Compound 4h]	>256 µg/mL	>256 µg/mL	>256 µg/mL	>256 µg/mL									
CCCCCCCCCCc1ccc(-n2c(N)nc(-c3ccccc3)c2-c2ccccc2)cc1 [Compound 4i]	>256 µg/mL	>256 µg/mL	>256 µg/mL	>256 µg/mL									
CCCCCCc1nc(N)n(-c2ccc(-c3ccccc3)cc2)c1-c1ccccc1 [Compound 4j]	>256 µg/mL	>256 µg/mL	4 µg/mL (≈ 10.1 µM)	4 µg/mL (≈ 10.1 µM)									
Nc1nc(-c2ccccc2)c(-c2ccccc2)n1-c1ccc(-c2ccccc2)cc1 [Compound 4k]	>256 µg/mL	>256 µg/mL	>256 µg/mL	>256 µg/mL									
CCCCCCc1nc(N)n(-c2ccccc2)c1-c1ccc(C)cc1 [Compound 4l]	>256 µg/mL	>256 µg/mL	8 µg/mL (≈ 24 µM)	4 µg/mL (≈ 12 µM)									
Cc1ccc(-c2c(-c3ccccc3)nc(N)n2-c2ccccc2)cc1 [Compound 4m]	>256 µg/mL	>256 µg/mL	>256 µg/mL	>256 µg/mL									
CCCc1ccc(-n2c(N)nc(C)c2-c2ccccc2)cc1 [Compound 4n]	64 µg/mL (≈ 220 µM)	64 µg/mL (≈ 220 µM)	32 µg/mL (≈ 110 µM)	32 µg/mL (≈ 110 µM)									
CCCCCc1ccc(-n2c(N)nc(C)c2-c2ccccc2)cc1 [Compound 4o]	16 µg/mL (≈ 50.1 µM)	>256 µg/mL	8 µg/mL (≈ 25 µM)	4 µg/mL (≈ 12.5 µM)	4 µg/mL (≈ 12.5 µM)	8 µg/mL (≈ 25 µM)	8 µg/mL (≈ 25 µM)	8 µg/mL (≈ 25 µM)	8 µg/mL (≈ 25 µM)	8 µg/mL (≈ 25 µM)	8 µg/mL (≈ 25 µM)	8 µg/mL (≈ 25 µM)	8 µg/mL (≈ 25 µM)
